Results from US20240350402A1, “TOPICAL DRUG TREATMENT TO PREVENT OR REDUCE CORNEAL SCARRING” (The Cleveland Clinic Foundation, priority 2021, published 2024).

System: collagen type IV
Assay: DMR model: IHC collagen type IV intensity in posterior stroma (ImageJ)
Format: in vivo, rabbit
Conditions: one month
Method: The rabbits had general anaesthesia with 30 mg/kg ketamine hydrochloride and 5 mg/kg xylazine by IM injection. In addition, topical proparacaine hydrochloride 1% (Alcon, Ft Worth, TX, USA) was applied to each eye prior to the surgery. One cornea selected at random in each group either had sham surgery without Descemetorhexis or an 8 mm diameter central Descemet's membrane-endothelial excision. The time point of one month after surgery was selected for the study because myofibroblasts and fibrosis in the posterior cornea was maximal at this time point in a prior time course Descemetorhexis study (Sampaio et al., 2021). Descemetorhexis was performed as described in the prior study (Sampaio et al., 2021). Briefly, a wire lid speculum was placed into one eye of each rabbit and an 8 mm diameter gentian violet circle was marked on the epithelial surface for reference. A limbal entry incision was created with a 1.6 mm blade (Bausch and Lomb, Rochester, NY, USA) and 0.3 ml Healon OVD (Abbott Medical Optics Inc. Santa Ana, CA, USA) was injected into the anterior chamber. A reversed Sinskey hook (Katena, Denville, New Jersey, USA) was placed into the anterior chamber and an 8 mm diameter disc of Descemet's membrane and endothelium was excised underlying the 8 mm area previously marked on the anterior corneal surface, without a subsequent endothelial corneal transplant. No removal of Descemet's membrane or endothelium was performed in unwounded sham surgery eyes. Remaining Healon OVD was removed with a Simcoe irrigation and aspiration cannula (Bausch & Lomb, Storz, Rochester, NY, USA) and the anterior chamber was filled with balanced salt solution (BSS). A single 10-0 nylon suture was placed at the incision site to prevent leakage from the anterior chamber. One drop of ciprofloxacin (Alcon, Ft. Worth, TX, USA) was applied to the corneas immediately after surgery and four times a day until the epithelium entry wound healed at approximately 2 days.
The oral solution was prepared with 5 ml distilled water+50 ml ora-plus (suspending vehicle—Perrigo, Dublin, Ireland)+45 ml Ora-sweet (flavored syrup vehicle—Perrigo).
Duplex immunohistochemistry (IHC) was performed after masking of slides by a researcher not involved in the analysis using previously described methods (de Oliveira et al., 2021) using primary antibodies (Table 2) confirmed by western blotting and IHC to recognize rabbit antigens or isotypic control antibodies (ThermoFisher Scientific, Waltham, MA), and secondary fluorescent tagged antibodies (Table 3).
The AB769 (Millipore, Temecula CA) collagen type IV antibody used in this study was generated against purified human and bovine collagen type IV, affinity purified with human and bovine collagen type IV crosslinked to agarose and cross-absorbed by the manufacturer with human and bovine collagens type I, II, III, V and VI to eliminate cross-reactivity. […]
Collagen type IV intensity in immunohistochemistry images was quantitated in 0.75 W×0.5H rectangles of posterior stroma tangent to the posterior corneal surface using ImageJ on 7.62 cm wide×5.69 cm height and 300 DPI images generated using standardized microscopic illumination settings applied to all sections. The quantitation rectangles were positioned such that the posterior side of the rectangle was tangent to the posterior corneal surface just anterior to Descemet's membrane, if one was present, in the analysed specimens. […]

[1] = topical losartan and oral losartan

SMILES: CCCCc1nc(Cl)c(CO)n1Cc1ccc(-c2ccccc2-c2nn[nH]n2)cc1 [losartan]
- collagen type IV production in the posterior stroma (oral losartan alone): no significant effect
- collagen type IV localization in posterior stroma (IHC) (topical losartan alone): primarily detected adjacent to the posterior surfaces
- collagen type IV vs DMR corneas treated with topical losartan alone [1]: not different
- posterior stromal collagen type IV production compared to topical vehicle and oral vehicle (ImageJ intensity) [1]: significantly decreased
- posterior stromal collagen type IV production compared to topical vehicle and oral vehicle (ImageJ intensity) (topical losartan): significantly decreased
